Experimental data reported in ChEMBL document CHEMBL3045451, “Isolation and characterization of fungal inhibitors from Epichloë festucae” (2000).

Assays:
Cryphonectria parasitica [1] = test: Fungicidal activity against Cryphonectria parasitica assessed as inhibition of fungal growth at 12.5 ug after 7 days; assay type: functional; conditions: 168 h, read-out: DIZ
Cryphonectria parasitica [2] = test: Fungicidal activity against Cryphonectria parasitica assessed as inhibition of fungal growth at 25 ug after 7 days; assay type: functional; conditions: 168 h, read-out: DIZ
Cryphonectria parasitica [3] = test: Fungicidal activity against Cryphonectria parasitica assessed as inhibition of fungal growth at 50 ug after 7 days; assay type: functional; conditions: 168 h, read-out: DIZ
Cryphonectria parasitica [4] = test: Fungicidal activity against Cryphonectria parasitica assessed as inhibition of fungal growth at 100 ug after 7 days; assay type: functional; conditions: 168 h, read-out: DIZ
Laetisaria fuciformis = test: Fungicidal activity against Laetisaria fuciformis assessed as inhibition of fungal growth at 10 to 1000 mg/L; assay type: functional, organism-based
Magnaporthiopsis poae = test: Fungicidal activity against Magnaporthe poae assessed as inhibition of fungal growth at 10 to 1000 mg/L; assay type: functional, organism-based
Rhizoctonia solani = test: Fungicidal activity against Rhizoctonia solani assessed as inhibition of fungal growth at 10 to 1000 mg/L; assay type: functional, organism-based

Structure (SMILES)	zone of inhibition at 12.5 µg/disc (Cryphonectria parasitica [1])	zone of inhibition at 25 µg/disc (Cryphonectria parasitica [2])	zone of inhibition at 50 µg/disc (Cryphonectria parasitica [3])	zone of inhibition at 100 µg/disc (Cryphonectria parasitica [4])	growth inhibition (GI) (Laetisaria fuciformis)	growth inhibition (GI) (Magnaporthiopsis poae)	growth inhibition (GI) (Rhizoctonia solani)
O=Cc1c[nH]c2ccccc12 [3-FORMYLINDOLE]	7 mm	10 mm	13 mm	15 mm	–	–	–
OCCc1c[nH]c2ccccc12 [TRYPTOPHOL]	7 mm	9 mm	11 mm	14 mm	Dose-dependent effect	Dose-dependent effect	Dose-dependent effect
O=C(O)Cc1c[nH]c2ccccc12 [INDOLE-3-ACETIC ACID]	12 mm	14 mm	16 mm	21 mm	Dose-dependent effect	Dose-dependent effect	Dose-dependent effect
CC(C)=CCC[C@@](C)(O)[C@H]1CC[C@](C)(O)[C@@H]1C [CYCLONERODIOL]	0 mm	0 mm	0 mm	13 mm	–	–	–
COC(=O)c1c[nH]c2ccccc12	4 mm	6 mm	8 mm	11 mm	–	–	–
CC(=O)NC(C)=O [DIACETAMIDE]	3 mm	7 mm	10 mm	14 mm	–	–	–
